# Test results published in patent publication US10189809B2, “SGC stimulators” (Ironwood Pharmaceuticals, Inc., priority 2010, dated 2019).
# pEC50: −log10 of the molar value. Read-outs that look alike come from different tables or passages of the source.
# Experiments:
# [1] = target: T1, soluble guanylate cyclase (sGC) (Homo sapiens (Human), UniProt Q02108+Q02153); test: sGC-HEK-cGMP assay run in the absence of SNP (HEK WC assay); assay type: cell-based; details: compound at 30 μM, absence of SNP
# T1 sequence (Q02153 whole entry): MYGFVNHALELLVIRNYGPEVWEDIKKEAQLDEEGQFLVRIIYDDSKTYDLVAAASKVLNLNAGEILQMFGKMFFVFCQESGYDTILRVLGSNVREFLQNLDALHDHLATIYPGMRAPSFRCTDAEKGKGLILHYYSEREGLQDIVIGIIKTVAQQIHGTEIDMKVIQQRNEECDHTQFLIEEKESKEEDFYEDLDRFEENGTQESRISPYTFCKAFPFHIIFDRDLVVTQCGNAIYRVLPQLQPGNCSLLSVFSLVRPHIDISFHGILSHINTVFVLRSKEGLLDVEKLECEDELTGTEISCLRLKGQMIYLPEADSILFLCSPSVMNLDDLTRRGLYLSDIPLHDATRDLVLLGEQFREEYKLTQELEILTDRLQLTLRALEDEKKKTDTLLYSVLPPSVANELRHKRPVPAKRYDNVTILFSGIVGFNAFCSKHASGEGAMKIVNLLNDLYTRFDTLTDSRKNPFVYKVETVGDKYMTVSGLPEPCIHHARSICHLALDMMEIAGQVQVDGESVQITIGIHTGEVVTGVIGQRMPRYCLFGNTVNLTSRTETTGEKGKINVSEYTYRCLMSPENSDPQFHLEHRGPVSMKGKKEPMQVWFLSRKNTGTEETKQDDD
# T1 sequence (Q02108 whole entry): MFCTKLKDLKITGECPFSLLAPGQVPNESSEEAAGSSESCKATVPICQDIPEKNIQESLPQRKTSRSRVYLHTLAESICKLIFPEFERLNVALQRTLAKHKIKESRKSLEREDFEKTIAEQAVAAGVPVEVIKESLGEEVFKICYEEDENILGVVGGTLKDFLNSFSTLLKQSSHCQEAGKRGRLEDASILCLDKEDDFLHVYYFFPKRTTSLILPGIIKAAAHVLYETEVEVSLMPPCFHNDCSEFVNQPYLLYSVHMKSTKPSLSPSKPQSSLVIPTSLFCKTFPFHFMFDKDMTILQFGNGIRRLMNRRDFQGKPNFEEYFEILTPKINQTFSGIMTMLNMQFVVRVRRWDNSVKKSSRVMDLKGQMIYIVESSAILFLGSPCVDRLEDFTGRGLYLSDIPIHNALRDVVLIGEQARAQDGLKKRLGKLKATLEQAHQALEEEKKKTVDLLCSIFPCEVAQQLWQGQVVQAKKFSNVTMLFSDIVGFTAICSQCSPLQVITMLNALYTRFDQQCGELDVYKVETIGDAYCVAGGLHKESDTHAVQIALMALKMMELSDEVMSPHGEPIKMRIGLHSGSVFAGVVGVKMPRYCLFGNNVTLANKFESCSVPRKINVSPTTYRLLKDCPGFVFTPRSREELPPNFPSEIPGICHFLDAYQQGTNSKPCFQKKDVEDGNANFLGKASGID
# Experimental: Human embryonic kidney cells (HEK293), endogenously expressing soluble guanylate cyclase (sGC), were used to evaluate the activity of test compounds. Compounds stimulating the sGC receptor should cause an increase in the intracellular concentration of cGMP. HEK 293 cells were seeded in Dulbecco's Modification of Eagle's Medium supplemented with fetal bovine serum (10% final) and L-glutamine (2 mM final) in a 200 μL volume at a density of 1×10^5 cells/well in a poly-D-lysine coated 96 well flat bottom plate and grown overnight at 37° C. Medium was aspirated and cells were washed with 1× Hank's Buffered Saline Salt Solution (200 μL). Cells were then incubated for 15 minutes at 37° C. with 0.5 mM 3-isobutyl-1-methylxanthine (200 μL). Test article was then added to the assay mixture (2 μL) and incubated at 37° C. for 10 minutes. After the 10 minute incubation, the assay mixture was aspirated and 0.1M HCl (200 μL) was added to the cells. The plate was incubated at 4° C. for 30 minutes in the 0.1M HCl to stop the reaction and lysed the cells. The plates were then centrifuged at 1,200 g for 5 minutes at room temperature. Supernatants were collected and transferred to a new flat bottom 96 well plate for analysis. Vehicle controls were carried out using DMSO (1%). A known sGC stimulator, BAY 41-2272, was used as the positive control. Samples were diluted with an equal volume of 1 M Ammonium Acetate (pH 7) to neutralize samples for better chromatography. A 2× cGMP standard curve was prepared in 0.1 M HCl and then diluted with an equal volume of 1 M Ammonium Acetate, with the following final concentrations in nM: 1024, 512, 256, 128, 64, 32, 16, 8, 4, 2, 1. cGMP concentrations were determined from each sample using the LC/MS conditions (Table 2 below) and calculated standard curve. EC50 values were calculated from concentration-response curves generated with GraphPad Prism Software.
# [2] = target: T1, soluble guanylate cyclase (sGC); test: sGC-HEK-cGMP assay run with SNP incubation (HEK WC assay); assay type: cell-based; details: for HEK WC Assay (fold increase at 30 μM in the presence of 10 μM SNP): compound at 30 μM; for pEC50: in the presence of 10 uM SNP
# In short: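 EC50 values derive from concentration-response curves of intracellular cGMP in HEK293 cells, which express sGC endogenously. Compound and sodium nitroprusside were co-incubated 10 min at 37 °C after a 15-min 0.5 mM IBMX step, with 0.1 M HCl lysis and 1% DMSO vehicle.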
# [3] = read-out: HEK WC Assay (% Emax at 10 μM with 10 uM SNP)
# [4] = read-out: HEK WC Assay (% Emax at 30 μM with 10 uM SNP)
# [5] = read-out: HEK WC Assay (% Emax at 1 μM with 10 uM SNP)
SMILES,HEK WC Assay (fold increase at 30 μM in the absence of SNP) [1],HEK WC Assay (fold increase at 30 μM in the presence of 10 μM SNP) [2],"Emax [2, 3]","Emax [2, 4]",pEC50 [2],"Emax [2, 5]"
CC(=O)Nc1c(N)nc(-c2cc(-c3ccon3)n(Cc3ccccc3F)n2)nc1N [Compound I-141],B (B = 1 to <2 fold increase),C (C = 2 to <5 fold increase),0 to 10%,0 to 10%,–,–
CNc1cnc(-c2cc(-c3ccon3)n(Cc3ccccc3F)n2)nc1N [Compound I-143],C (C = 2 to <5 fold increase),D (D = 5 to <10 fold increase),40 to 60%,40 to 60%,4.22 to 4.40,–
Nc1cnc(-c2cc(-c3ncco3)n(Cc3ccccc3F)n2)nc1N [Compound I-149],C (C = 2 to <5 fold increase),D (D = 5 to <10 fold increase),60 to 80%,80 to 100%,4.40 to 4.70,–
Nc1cc(O)nc(-c2cc(-c3ccon3)n(Cc3ccccc3F)n2)n1 [Compound I-154],B (B = 1 to <2 fold increase),B (B = 1 to <2 fold increase),0 to 10%,10 to 20%,–,–
O=C(Nc1cnc(-c2cc(-c3ncco3)n(Cc3ccccc3F)n2)nc1O)c1ccccc1 [Compound I-159],B (B = 1 to <2 fold increase),D (D = 5 to <10 fold increase),20 to 40%,20 to 40%,–,–
"Oc1ccnc(-c2cc(-c3ccon3)n(Cc3ccccc3F)n2)n1 [Compound I-160, 2-(1-(2-fluorobenzyl)-5-(isoxazol-3-yl)-1H-pyrazol-3-yl)pyrimidin-4-ol]",C (C = 2 to <5 fold increase),E (E = 10 to <20 fold increase),40 to 60%,40 to 60%,> 4.70,10 to 20%
Oc1nc(-c2cc(-c3ccon3)n(Cc3ccccc3F)n2)ncc1-c1ccncc1 [Compound I-163],C (C = 2 to <5 fold increase),E (E = 10 to <20 fold increase),40 to 60%,40 to 60%,–,–
CC(C)(C)OC(=O)Nc1cnc(-c2cc(-c3ccon3)n(Cc3ccccc3F)n2)nc1O [Compound I-164],C (C = 2 to <5 fold increase),E (E = 10 to <20 fold increase),20 to 40%,20 to 40%,–,–
Nc1nc(-c2cc(-c3ccon3)n(Cc3ccccc3F)n2)ncc1NC(=O)CCCCl [Compound I-167],D (D = 5 to <10 fold increase),G (G = 30 to <40 fold increase),80 to 100%,100 to 120%,> 4.70,60 to 80%
O=[N+]([O-])c1cnc(-c2cc(-c3ccon3)n(Cc3ccccc3F)n2)nc1O [Compound I-170],B (B = 1 to <2 fold increase),B (B = 1 to <2 fold increase),0 to 10%,–,–,0 to 10%
Nc1nc(-c2cc(-c3ccon3)n(Cc3ccccc3F)n2)ncc1NC(=O)c1cccc(F)c1 [Compound I-171],E (E = 10 to <20 fold increase),E (E = 10 to <20 fold increase),100 to 120%,80 to 100%,> 4.70,60 to 80%
COc1cnc(-c2cc(-c3ccon3)n(Cc3ccccc3F)n2)nc1N [Compound I-173],C (C = 2 to <5 fold increase),D (D = 5 to <10 fold increase),40 to 60%,10 to 20%,3.52 to 4.00,0 to 10%
Nc1nc(-c2cc(-c3ccon3)n(Cc3ccccc3F)n2)ncc1NC(=O)c1ccon1 [Compound I-175],E (E = 10 to <20 fold increase),E (E = 10 to <20 fold increase),80 to 100%,100 to 120%,> 4.70,60 to 80%
Nc1nc(-c2cc(-c3ccon3)n(Cc3ccccc3F)n2)ncc1NC(=O)c1cccnc1 [Compound I-179],E (E = 10 to <20 fold increase),E (E = 10 to <20 fold increase),60 to 80%,80 to 100%,> 4.70,40 to 60%
Nc1nc(-c2cc(-c3ccon3)n(Cc3ccccc3F)n2)ncc1NC(=O)c1cocn1 [Compound I-180],D (D = 5 to <10 fold increase),E (E = 10 to <20 fold increase),80 to 100%,80 to 100%,> 4.70,40 to 60%
Cc1ccc(C(=O)Nc2cnc(-c3cc(-c4ccon4)n(Cc4ccccc4F)n3)nc2N)cc1 [Compound I-181],E (E = 10 to <20 fold increase),E (E = 10 to <20 fold increase),80 to 100%,> 120%,> 4.70,60 to 80%
Nc1nc(-c2cc(-c3ccon3)n(Cc3ccccc3F)n2)ncc1NC(=O)c1ccc(Cl)cc1 [Compound I-182],E (E = 10 to <20 fold increase),E (E = 10 to <20 fold increase),80 to 100%,80 to 100%,> 4.70,60 to 80%
Cc1cccc(C(=O)Nc2cnc(-c3cc(-c4ccon4)n(Cc4ccccc4F)n3)nc2N)c1 [Compound I-183],E (E = 10 to <20 fold increase),D (D = 5 to <10 fold increase),100 to 120%,80 to 100%,> 4.70,60 to 80%
